Test results as given in article PMC3617406 (Molecular pharmaceutics, 2013).
Counter-ions that a name gives are not always drawn.

How the values were obtained:
human NTCP = target: T1, human NTCP (Homo sapiens, UniProt Q14973); assay type: cell-based; conditions: for potency estimated from few doses: read-out: Estimated Ki for NTCP; for NTCP inhibitor or non-inhibitor: inhibitor = Ki less than 300 μM
T1 sequence (Q14973 1-349): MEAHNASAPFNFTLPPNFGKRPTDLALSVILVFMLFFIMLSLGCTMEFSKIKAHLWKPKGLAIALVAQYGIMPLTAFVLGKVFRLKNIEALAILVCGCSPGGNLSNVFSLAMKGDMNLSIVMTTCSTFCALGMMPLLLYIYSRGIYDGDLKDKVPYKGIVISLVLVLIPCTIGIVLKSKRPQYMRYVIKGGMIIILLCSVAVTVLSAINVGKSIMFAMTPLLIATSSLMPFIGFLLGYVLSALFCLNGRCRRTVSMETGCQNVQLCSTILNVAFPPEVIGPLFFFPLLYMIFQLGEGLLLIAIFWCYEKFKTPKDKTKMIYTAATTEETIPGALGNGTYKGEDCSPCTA

human ASBT = target: T2, human ASBT (Homo sapiens, UniProt Q12908); assay type: cell-based; conditions: for ASBT inhibitor or non-inhibitor: inhibitor = Ki below 300 μM; for potency estimated from few doses: read-out: Estimated Ki for ASBT; for taurocholate uptake into ASBT-MDCK cells, percent of control: single drug concentration, same as in NTCP screening (typically 100 μM); for fold more potent ASBT inhibition than NTCP inhibition: Ki values of Table 4 and 5
T2 sequence (Q12908 1-348): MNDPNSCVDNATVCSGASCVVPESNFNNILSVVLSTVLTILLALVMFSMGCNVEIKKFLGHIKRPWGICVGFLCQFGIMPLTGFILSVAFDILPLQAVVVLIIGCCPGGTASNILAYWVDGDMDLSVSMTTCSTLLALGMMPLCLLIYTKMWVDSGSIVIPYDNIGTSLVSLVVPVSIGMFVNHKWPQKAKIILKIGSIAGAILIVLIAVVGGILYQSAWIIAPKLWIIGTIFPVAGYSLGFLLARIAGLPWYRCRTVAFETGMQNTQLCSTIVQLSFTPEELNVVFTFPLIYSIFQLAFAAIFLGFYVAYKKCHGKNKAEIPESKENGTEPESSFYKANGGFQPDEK

potency estimated from few doses (human NTCP) [µM] | ASBT inhibitor or non-inhibitor (human ASBT) | potency estimated from few doses (human ASBT) [µM] | taurocholate uptake into ASBT-MDCK cells, percent of control (human ASBT) | fold more potent ASBT inhibition than NTCP inhibition (human ASBT) [fold] | NTCP inhibitor or non-inhibitor (human NTCP) | Compound
601 ± 300 | ASBT inhibitors | 61.3 ± 16 |  |  |  | Clc1ccc(COC(Cn2ccnc2)c2ccc(Cl)cc2Cl)c(Cl)c1 (stereo not drawn) [Miconazole]
304 ± 132 |  | > 100 |  |  |  | NS(=O)(=O)c1cc(C(=O)O)c(NCc2ccco2)cc1Cl [Furosemide]
 |  | 47.3 ± 9.7 | below 50% |  |  | CC(C)c1nc(CN(C)C(=O)N[C@H](C(=O)N[C@@H](Cc2ccccc2)C[C@H](O)[C@H](Cc2ccccc2)NC(=O)OCc2cncs2)C(C)C)cs1 [Ritonavir]
332 ± 73 |  | 208 ± 51 |  |  |  | CN/C(=N/CCSCc1nc[nH]c1C)NC#N [Cimetidine]
411 ± 139 |  | 110 ± 3 |  |  |  | Nc1nc(N)c2nc(-c3ccccc3)c(N)nc2n1 [Triamterene]
2010 ± 5840 |  | > 100 |  |  |  | CCOc1ccc2ccccc2c1C(=O)N[C@@H]1C(=O)N2[C@@H]1SC(C)(C)[C@@H]2C(=O)O [Nafcillin]
> 100 |  | 318 ± 169 |  |  |  | C[C@H]1O[C@H](O[C@H]2[C@H](O)[C@@H](O)[C@@H](O[C@H]3[C@H](O)[C@@H](O)C(O)O[C@@H]3CO)O[C@@H]2CO)[C@H](O)[C@@H](O)[C@@H]1N[C@H]1C=C(CO)[C@@H](O)[C@H](O)[C@H]1O (stereo partly drawn) [Acarbose]
 |  | 31.7 ± 6.5 |  |  |  | CCOC(=O)C1=C(C)NC(C)=C(C(=O)OC)C1c1cccc([N+](=O)[O-])c1 (stereo not drawn) [Nitrendipine]
1290 |  | 1460 |  |  |  | Nc1nc(NC2CC2)c2ncn([C@H]3C=C[C@@H](CO)C3)c2n1 [Abacavir]
> 100 |  | 137 ± 48 |  | ≥ 10 |  | CN1CCC[C@@H]1Cc1c[nH]c2ccc(CCS(=O)(=O)c3ccccc3)cc12 [Eletriptan]
 |  | 65.8 ± 9.2 |  |  |  | O=C(c1ccc(OCCN2CCCCC2)cc1)c1c(-c2ccc(O)cc2)sc2cc(O)ccc12 [Raloxifene HCl]
1660 ± 2870 |  | 529 ± 600 |  |  |  | O=C1C(CC[S+]([O-])c2ccccc2)C(=O)N(c2ccccc2)N1c1ccccc1 (stereo not drawn) [Sulfinpyrazone]
> 100 |  | 103 ± 23 |  | ≥ 10 |  | COc1ccc2[nH]c([S+]([O-])Cc3ncc(C)c(OC)c3C)nc2c1 (stereo not drawn) [Omeprazole]
384 ± 185 |  | > 100 |  |  |  | CCN(CC)CCNC(=O)c1ccc(N)cc1 [Procainamide HCl]
369 ± 83 | ASBT inhibitors | 223 ± 90 |  |  |  | Cc1ncc([N+](=O)[O-])n1CCO [Metronidazole]
387 ± 130 |  | 2280 ± 978 |  |  |  | NC(N)=Nc1nc(CSCCC(N)=NS(N)(=O)=O)cs1 [Famotidine]
 |  | 131 ± 34 |  |  | inhibited NTCP | CCCCC1=NC2(CCCC2)C(=O)N1Cc1ccc(-c2ccccc2-c2nnn[nH]2)cc1 [Irbesartan]
402 ± 116 |  | 50.3 ± 18 |  |  |  | CCCNCC(O)COc1ccccc1C(=O)CCc1ccccc1 (stereo not drawn) [Propafenone HCl]
 | ASBT inhibitors | 11.9 ± 2.7 | below 50% |  |  | Clc1ccc(C(Cn2ccnc2)OCc2ccsc2Cl)c(Cl)c1 (stereo not drawn) [Tioconazole]
> 100 |  | 811 ± 243 |  |  |  | CC(C)C[C@H](NC(=O)[C@H](Cc1ccccc1)NC(=O)c1cnccn1)B(O)O [Bortezomib]
> 100 |  | 162 ± 82 |  | ≥ 10 |  | CCOC(=O)[C@H](CCc1ccccc1)N[C@@H](C)C(=O)N1CCC[C@H]1C(=O)O [Enalapril]
99.5 ± 14 |  | 17.9 ± 2.3 | below 50% |  | NTCP inhibitors | COC(=O)C1=C(C)NC(C)=C(C(=O)OC(C)C)C1c1cccc2nonc12 (stereo not drawn) [Isradipine]

potency estimated from few doses (human NTCP) [µM] | ASBT inhibitor or non-inhibitor (human ASBT) | potency estimated from few doses (human ASBT) [µM] | taurocholate uptake into ASBT-MDCK cells, percent of control (human ASBT) | fold more potent ASBT inhibition than NTCP inhibition (human ASBT) [fold] | NTCP inhibitor or non-inhibitor (human NTCP) | Compound
 |  | 30.9 ± 1.7 | below 50% |  |  | COCCOC(=O)C1=C(C)NC(C)=C(C(=O)OC(C)C)C1c1cccc([N+](=O)[O-])c1 (stereo not drawn) [Nimodipine]
> 100 |  | 30.3 ± 11 | below 50% |  |  | CCCN(CCC)CCc1cccc2c1CC(=O)N2 [Ropinirole]
 |  | 168 ± 10 |  |  |  | NS(=O)(=O)c1cc2c(cc1C(F)(F)F)NC(Cc1ccccc1)NS2(=O)=O (stereo not drawn) [Bendroflumethiazide]
250 ± 50 |  | 194 ± 24 |  |  | inhibited NTCP | Nc1ccc(S(N)(=O)=O)cc1 [Sulfanilamide]
> 100 |  | 1420 |  |  |  | C[C@H]1[C@H](NC(=O)/C(=N\OC(C)(C)C(=O)O)c2csc(N)n2)C(=O)N1S(=O)(=O)O [Aztreonam]
 |  | 139 ± 58 |  |  |  | CCCCc1nc(Cl)c(CO)n1Cc1ccc(-c2ccccc2-c2nn[nH]n2)cc1 [Losartan]
> 100 |  | 1890 ± 257 |  |  |  | N[C@@H](C(=O)N[C@@H]1C(=O)N2C(C(=O)O)=C(Cl)CS[C@H]12)c1ccccc1 [Cefaclor]
> 100 |  | 1020 ± 49 |  |  |  | CCOC(=O)C1=C[C@@H](OC(CC)CC)[C@H](NC(C)=O)[C@@H](N)C1 [Oseltamivir]
77.1 ± 38 | ASBT inhibitors | 57 ± 25 |  |  | NTCP inhibitors | CCC(C)n1ncn(-c2ccc(N3CCN(c4ccc(OCC5COC(Cn6cncn6)(c6ccc(Cl)cc6Cl)O5)cc4)CC3)cc2)c1=O (stereo not drawn) [Itraconazole]
202 ± 32 |  | 21.7 ± 2.1 | below 50% |  | NTCP inhibitors | CC[C@H](C)C(=O)O[C@H]1C[C@@H](C)C=C2C=C[C@H](C)[C@H](CC[C@@H]3C[C@@H](O)CC(=O)O3)[C@H]21 [Lovastatin]
217 ± 69 |  | 136 ± 13 |  |  | inhibited NTCP | COc1ccc2cc([C@H](C)C(=O)O)ccc2c1 [Naproxen]
513 ± 169 |  | 313 ± 53 |  |  |  | CCC1(C)CC(=O)NC1=O (stereo not drawn) [Ethosuximide]
767 ± 268 |  | 50.7 ± 5.9 | below 50% | ≥ 10 |  | CN(C)CCCN1c2ccccc2Sc2ccc(Cl)cc21 [Chlorpromazine]
309 ± 144 |  | 142 ± 3 |  |  |  | COC(=O)C1=C(C)NC(C)=C(C(=O)OCCN(C)Cc2ccccc2)C1c1cccc([N+](=O)[O-])c1 (stereo not drawn) [Nicardipine]
416 ± 624 | ASBT inhibitors | 18.5 ± 3.9 | below 50% | ≥ 10 |  | Clc1ccc(COC(Cn2ccnc2)c2ccc(Cl)cc2Cl)cc1 (stereo not drawn) [Econazole]
1490 ± 581 |  | 239 ± 117 |  |  |  | C=C[C@H]1C[N@@]2CC[C@H]1C[C@H]2[C@H](O)c1ccnc2ccc(OC)cc12 [Quinine]
> 100 |  | 246 ± 119 |  |  | did not inhibit NTCP | CCCCc1ncc(/C=C(\Cc2cccs2)C(=O)O)n1Cc1ccc(C(=O)O)cc1 [Eprosartan]
53.8 ± 3.3 |  | 4.61 ± 0.88 | below 50% |  | NTCP inhibitors | O=C1[C@H](CC[C@H](O)c2ccc(F)cc2)[C@@H](c2ccc(O)cc2)N1c1ccc(F)cc1 [Ezetimibe]
336 ± 101 |  |  |  |  |  | CCN(CC)CCCC(C)Nc1ccnc2cc(Cl)ccc12 (stereo not drawn) [Chloroquine]
 | inhibited NTCP but not ASBT | 1050 ± 422 |  |  |  | CCCc1nc(C(C)(C)O)c(C(=O)O)n1Cc1ccc(-c2ccccc2-c2nnn[nH]2)cc1 [Olmesartan]
 |  |  |  |  | NTCP inhibitors | COCc1c(C(C)C)nc(C(C)C)c(/C=C/[C@@H](O)C[C@@H](O)CC(=O)O)c1-c1ccc(F)cc1 [Cerivastatin]
 |  | 164 ± 34 |  |  |  | CC(C)c1nc(N(C)S(C)(=O)=O)nc(-c2ccc(F)cc2)c1/C=C/[C@@H](O)C[C@@H](O)CC(=O)O [Rosuvastatin]

Compound | potency estimated from few doses (human NTCP) [µM] | ASBT inhibitor or non-inhibitor (human ASBT) | potency estimated from few doses (human ASBT) [µM] | taurocholate uptake into ASBT-MDCK cells, percent of control (human ASBT) | fold more potent ASBT inhibition than NTCP inhibition (human ASBT) [fold] | NTCP inhibitor or non-inhibitor (human NTCP)
COc1cccc2c1C(=O)c1c(O)c3c(c(O)c1C2=O)C[C@@](O)(C(C)=O)C[C@@H]3O[C@H]1C[C@H](N)[C@H](O)[C@H](C)O1 [Daunorubicin] | > 100 |  | > 100 |  |  | 
CC(=O)CC(c1ccccc1)c1c(O)c2ccccc2oc1=O (stereo not drawn) [Warfarin] | > 100 |  | 97.4 ± 26 |  |  | 
